# Laboratory results from patent publication US20110086759A1, “CHEMICAL COMPOUNDS” (SYNGENTA CROP PROTECTION, INC., priority 2007, published 2011).
# Columns and labels:
# Assay type in all cases: in vivo
# [1] = test system: Alopecurus myosuroides (ALOMY); assay: Pre-emergence biological efficacy, glasshouse pot test; settings: 312 h
# Method in brief: (§1)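 Seeds sown in standard soil in pots, held one day in glasshouse (24/16 °C day/night, 14 h light, 65% humidity), then sprayed with aqueous solution from acetone/water (50:50) formulation with 0.5% Tween 20 at 1000 or 250 g/ha. Damage scored after 13 days (0 = none, 100 = total).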
# [2] = test system: Amaranthus retoflexus (AMARE); assay: as above; settings: Amaranthus retroflexus, 312 h
# Method in brief: as §1
# [3] = test system: Echinochloa crus-galli (ECHCG); assay: as above; settings: 312 h
# Method in brief: as §1
# [4] = test system: Ipomea hederaceae (IPOHE); assay: as above; settings: Ipomoea hederacea, 312 h
# Method in brief: as §1
# Setaria faberi (SETFA) [5] = assay: as above; settings: 312 h
# Method in brief: as §1
# Solanum nigrum (SOLNI) [6] = assay: as above; settings: 312 h
# Method in brief: as §1
# [7] = test system: Alopecurus myosuroides (ALOMY); assay: Post-emergence biological efficacy, glasshouse pot test; settings: 312 h
# Method in brief: (§2)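 Plants were sown in standard soil and grown 8 days in a glasshouse (24/16° C. day/night, 14 hours light, 65% humidity), then sprayed post-emergence at 1000 or 250 g/ha from acetone/water (50:50) with 0.5% Tween 20. Damage was scored visually after 13 days (0 = none, 100 = total).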
# [8] = test system: Amaranthus retoflexus (AMARE); assay: as above; settings: Amaranthus retroflexus, 312 h
# Method in brief: as §2
# [9] = test system: Echinochloa crus-galli (ECHCG); assay: as above; settings: 312 h
# Method in brief: as §2
# [10] = test system: Ipomea hederaceae (IPOHE); assay: as above; settings: Ipomoea hederacea, 312 h
# Method in brief: as §2
# Setaria faberi (SETFA) [11] = assay: as above; settings: 312 h
# Method in brief: as §2
# Solanum nigrum (SOLNI) [12] = assay: as above; settings: 312 h
# Method in brief: as §2
# [13] = pre-emergence, 1,000 g/ha, evaluated after 13 days (100=total damage; 0=no damage), read-out: Percentage damage ALOMY
# [14] = pre-emergence, 1,000 g/ha, evaluated after 13 days (100=total damage; 0=no damage), read-out: Percentage damage AMARE
# [15] = pre-emergence, 1,000 g/ha, evaluated after 13 days (100=total damage; 0=no damage), read-out: Percentage damage ECHCG
# [16] = pre-emergence, 1,000 g/ha, evaluated after 13 days (100=total damage; 0=no damage), read-out: Percentage damage IPOHE
# [17] = pre-emergence, 1,000 g/ha, evaluated after 13 days (100=total damage; 0=no damage), read-out: Percentage damage SETFA
# [18] = pre-emergence, 1,000 g/ha, evaluated after 13 days (100=total damage; 0=no damage), read-out: Percentage damage SOLNI
# [19] = post-emergence, 1,000 g/ha, evaluated after 13 days (100=total damage; 0=no damage), read-out: Percentage damage caused to weed species, ALOMY
# [20] = post-emergence, 1,000 g/ha, evaluated after 13 days (100=total damage; 0=no damage), read-out: Percentage damage caused to weed species, AMARE
# [21] = post-emergence, 1,000 g/ha, evaluated after 13 days (100=total damage; 0=no damage), read-out: Percentage damage caused to weed species, ECHCG
# [22] = post-emergence, 1,000 g/ha, evaluated after 13 days (100=total damage; 0=no damage), read-out: Percentage damage caused to weed species, IPOHE
# [23] = post-emergence, 1,000 g/ha, evaluated after 13 days (100=total damage; 0=no damage), read-out: Percentage damage caused to weed species, SETFA
# [24] = post-emergence, 1,000 g/ha, evaluated after 13 days (100=total damage; 0=no damage), read-out: Percentage damage caused to weed species, SOLNI
# [25] = pre-emergence, rate 1,000 g/ha, evaluated after 13 days (100=total damage to plant; 0=no damage), read-out: Percentage damage caused to weed species, ALOMY
# [26] = pre-emergence, rate 1,000 g/ha, evaluated after 13 days (100=total damage to plant; 0=no damage), read-out: Percentage damage caused to weed species, AMARE
# [27] = pre-emergence, rate 1,000 g/ha, evaluated after 13 days (100=total damage to plant; 0=no damage), read-out: Percentage damage caused to weed species, ECHCG
# [28] = pre-emergence, rate 1,000 g/ha, evaluated after 13 days (100=total damage to plant; 0=no damage), read-out: Percentage damage caused to weed species, IPOHE
# [29] = pre-emergence, rate 1,000 g/ha, evaluated after 13 days (100=total damage to plant; 0=no damage), read-out: Percentage damage caused to weed species, SETFA
# [30] = pre-emergence, rate 1,000 g/ha, evaluated after 13 days (100=total damage to plant; 0=no damage), read-out: Percentage damage caused to weed species, SOLNI
# [31] = Rate 1,000 g/ha, post-emergence spray, evaluated after 13 days (100=total damage to plant; 0=no damage to plant), read-out: Percentage damage caused to weed species, post-emergence, ALOMY
# [32] = Rate 1,000 g/ha, post-emergence spray, evaluated after 13 days (100=total damage to plant; 0=no damage to plant), read-out: Percentage damage caused to weed species, post-emergence, AMARE
# [33] = Rate 1,000 g/ha, post-emergence spray, evaluated after 13 days (100=total damage to plant; 0=no damage to plant), read-out: Percentage damage caused to weed species, post-emergence, ECHCG
# [34] = Rate 1,000 g/ha, post-emergence spray, evaluated after 13 days (100=total damage to plant; 0=no damage to plant), read-out: Percentage damage caused to weed species, post-emergence, IPOHE
# [35] = Rate 1,000 g/ha, post-emergence spray, evaluated after 13 days (100=total damage to plant; 0=no damage to plant), read-out: Percentage damage caused to weed species, post-emergence, SETFA
# [36] = Rate 1,000 g/ha, post-emergence spray, evaluated after 13 days (100=total damage to plant; 0=no damage to plant), read-out: Percentage damage caused to weed species, post-emergence, SOLNI
Compound,"pest or weed control at 1000 g/ha [1, 13] [%]","pest or weed control at 1000 g/ha [2, 14] [%]","pest or weed control at 1000 g/ha [3, 15] [%]","pest or weed control at 1000 g/ha [4, 16] [%]",pest or weed control at 1000 g/ha (Setaria faberi (SETFA) [5]; [17]) [%],pest or weed control at 1000 g/ha (Solanum nigrum (SOLNI) [6]; [18]) [%],"pest or weed control at 1000 g/ha [7, 19] [%]","pest or weed control at 1000 g/ha [8, 20] [%]","pest or weed control at 1000 g/ha [9, 21] [%]","pest or weed control at 1000 g/ha [10, 22] [%]",pest or weed control at 1000 g/ha (Setaria faberi (SETFA) [11]; [23]) [%],pest or weed control at 1000 g/ha (Solanum nigrum (SOLNI) [12]; [24]) [%],"pest or weed control at 1000 g/ha [1, 25] [%]","pest or weed control at 1000 g/ha [2, 26] [%]","pest or weed control at 1000 g/ha [3, 27] [%]","pest or weed control at 1000 g/ha [4, 28] [%]",pest or weed control at 1000 g/ha (Setaria faberi (SETFA) [5]; [29]) [%],pest or weed control at 1000 g/ha (Solanum nigrum (SOLNI) [6]; [30]) [%],"pest or weed control at 1000 g/ha [7, 31] [%]","pest or weed control at 1000 g/ha [8, 32] [%]",other results
"COC(=O)c1nc(C2CC2)nc(NCc2ncccc2Cl)c1Cl [Compound 4-152, 5-Chloro-4-(3-chloropyrid-2-ylmethylamino)-2-cyclopropyl-6-methoxycarbonyl-pyrimidine]",20,70,70,100,40,80,50,100,80,100,90,90,,,,,,,,,
"COC(=O)c1nc(C2CC2)nc(NCC2(O)CCc3ccc(OC)cc32)c1Cl (stereo not drawn) [Compound 4-59, 5-Chloro-2-cyclopropyl-4-[(1-hydroxy-6-methoxyindan-1-yl)methylamino]-6-methoxycarbonyl-pyrimidine]",20,80,40,80,10,80,50,100,60,100,80,100,,,,,,,,,
"O=C(O)c1nc(C2CC2)nc(NCc2ccc(F)cc2)c1Cl [Compound 1-66, 5-Chloro-2-cyclopropyl-4-(4-fluorophenylmethyl-amino)pyrimidine-6-carboxylic acid]",10,50,10,90,10,60,10,100,50,80,80,90,,,,,,,,,
"COC(=O)c1nc(-c2ccc(Cl)c(C)c2)nc(NCc2ccco2)c1Cl [Compound 216-48, 5-Chloro-2-(4-chloro-3-methylphenyl)-4-(furan-2-ylmethyl-amino)-6-methoxy-carbonylpyrimidine]",,,,,,,,,,,,,0,30,30,0,30,30,10,100,"pest or weed control at 1000 g/ha [9, 33]: 30%; pest or weed control at 1000 g/ha [10, 34]: 30%; pest or weed control at 1000 g/ha (Setaria faberi (SETFA) [11]; [35]): 10%; pest or weed control at 1000 g/ha (Solanum nigrum (SOLNI) [12]; [36]): 60%"
"COC(=O)c1nc(-c2ccc(Cl)c(F)c2F)nc(NCc2ccco2)c1Cl [Compound 225-48, 5-Chloro-2-(4-chloro-2,3-difluorophenyl)-4-(furan-2-ylmethyl-amino)-6-methoxy-carbonylpyrimidine]",,,,,,,,,,,,,60,100,30,70,80,90,60,100,"pest or weed control at 1000 g/ha [9, 33]: 60%; pest or weed control at 1000 g/ha [10, 34]: 90%; pest or weed control at 1000 g/ha (Setaria faberi (SETFA) [11]; [35]): 80%; pest or weed control at 1000 g/ha (Solanum nigrum (SOLNI) [12]; [36]): 90%"
"COC(=O)c1nc(C2CC2)nc(NC2(/C=C/c3c(F)cccc3F)CC2)c1Cl [Compound 4-26, 5-Chloro-2-cyclopropyl-4-{1-[2-(2,6-difluoro-phenyl)ethenyl]-cyclopropylamino}-6-methoxy-carbonylpyrimidine]",10,20,0,50,0,20,20,100,20,90,60,70,,,,,,,,,
"COC(=O)c1nc(-c2cc(F)c(F)cc2F)nc(NCc2ccco2)c1Cl [Compound 241-48, 5-Chloro-4-(furan-2-ylmethylamino)-6-methoxycarbony-2-(2,4,5-trifluoro-phenyl)pyrimidine]",,,,,,,,,,,,,0,80,0,10,0,0,10,80,"pest or weed control at 1000 g/ha [9, 33]: 0%; pest or weed control at 1000 g/ha [10, 34]: 60%; pest or weed control at 1000 g/ha (Setaria faberi (SETFA) [11]; [35]): 10%; pest or weed control at 1000 g/ha (Solanum nigrum (SOLNI) [12]; [36]): 50%"
"COC(=O)c1nc(C2CC2)nc(NC(C)C(O)c2ccc(O)cc2)c1Cl (stereo not drawn) [Compound 4-271, 5-Chloro-2-cyclopropyl-4-[2-hydroxy-2-(4-hydroxyphenyl)-1-methyl-ethylamino]-6-methoxycarbonyl-pyrimidine]",20,100,20,100,30,90,30,100,70,100,80,90,,,,,,,,,
